These compounds were tested against human TrkA receptor (Homo sapiens (Human), UniProt P04629) (assay: TrkA functional activity, DiscoverX PathHunter assay). Conditions: U2OS cells expressing human TrkA-PK, Shc1-EA and p75NTR; compound 1 h, then NGF at ~80% of maximal response for 3 h; luminescence.
Sequence of human TrkA receptor (P04629 33-796): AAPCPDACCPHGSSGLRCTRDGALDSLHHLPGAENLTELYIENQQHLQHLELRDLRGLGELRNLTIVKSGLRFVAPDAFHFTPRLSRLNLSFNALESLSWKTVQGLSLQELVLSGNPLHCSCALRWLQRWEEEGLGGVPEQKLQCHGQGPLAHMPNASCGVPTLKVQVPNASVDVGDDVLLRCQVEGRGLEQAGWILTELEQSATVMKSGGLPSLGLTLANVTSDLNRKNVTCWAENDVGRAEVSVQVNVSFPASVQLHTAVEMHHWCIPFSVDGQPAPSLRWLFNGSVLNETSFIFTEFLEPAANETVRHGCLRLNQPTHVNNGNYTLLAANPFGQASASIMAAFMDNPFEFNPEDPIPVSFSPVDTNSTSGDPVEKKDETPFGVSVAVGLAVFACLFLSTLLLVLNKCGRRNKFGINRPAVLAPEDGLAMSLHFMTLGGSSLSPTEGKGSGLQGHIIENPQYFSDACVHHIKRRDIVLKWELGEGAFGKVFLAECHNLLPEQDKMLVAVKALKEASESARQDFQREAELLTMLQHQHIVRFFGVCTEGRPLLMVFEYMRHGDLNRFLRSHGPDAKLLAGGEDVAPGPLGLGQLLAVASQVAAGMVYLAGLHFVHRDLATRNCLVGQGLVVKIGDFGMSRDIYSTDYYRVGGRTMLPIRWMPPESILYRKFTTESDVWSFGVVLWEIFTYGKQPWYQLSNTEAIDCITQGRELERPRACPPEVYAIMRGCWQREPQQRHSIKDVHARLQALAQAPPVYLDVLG
Format: cell-based
Description: TrkA functional activity was measured using a DiscoverX PathHunter assay. In this assay, U2OS cells express the human TrkA receptor as a fusion with the weakly complementing fragment of B-galactosidase, which DiscoverX calls “Prolink (PK)”; additionally, Shc1 is fused with a larger fragment, which is called “Enzyme Acceptor (EA)”. Activation of the TrkA receptor, upon NGF addition, results in the kinase domain being phosphorylated, resulting in subsequent recruitment of Shc1-EA protein. That recruitment results in an active B-galactosidase enzyme that is detected by addition of a chemiluminescent substrate. The human p75^NTR protein was also expressed as a co-receptor for NGF.
All reagents were purchased from DiscoverX, except for the receptor agonists (NGF, BDNF, NT3) which were purchased from Peprotech. Cells were expanded and frozen into cryovials, and stored in the vapor phase of liquid nitrogen, and thawed immediately before use. Thawed cells were added to a 384-well plate at 7500 cells/well, and allowed to incubate overnight. Compound at various concentrations was added the following morning and allowed to incubate on cells for 1 h. Then, NGF was added at a concentration sufficient to elicit ˜80% of a maximal response and allowed to incubate for 3 h at ambient temperature. DiscoverX PathHunter detection reagent was then added and the plate was further incubated for 1 h in the dark. The plate was then read via luminescence on the Perkin Elmer Envision.
`Cc1ccccc1-n1nc2cc(C(N)=O)ccc2c1NC(=O)c1cc(-c2ncccn2)c(C(F)(F)F)cc1F` [Compound 93, 3-({[2-fluoro-5-pyrimidin-2-yl-4-(trifluoromethyl)phenyl]carbonyl}amino)-2-(2-methylphenyl)-2H-indazole-6-carboxamide] was tested, and the IC50 was 32 nM. `Cn1ccc(-c2cc(C(=O)Nc3c4cccnc4nn3-c3ccccc3)c(F)cc2C(F)(F)F)n1` [Compound 6, 2-fluoro-5-(1-methyl-1H-pyrazol-3-yl)-N-(2-phenyl-2H-pyrazolo[3,4-b]pyridin-3-yl)-4-(trifluoromethyl)benzamide] gave an IC50 of 6.1 nM. Work on `Cn1ccc(-c2cc(C(=O)Nc3c4cc(C(N)=O)ccc4nn3-c3ccccc3)ccc2C(F)(F)F)n1` [Compound 79, 3-({[3-(1-methyl-1H-pyrazol-3-yl)-4-(trifluoromethyl)phenyl]carbonyl}amino)-2-phenyl-2H-indazole-5-carboxamide] yielded an IC50 of 11 nM. `Cc1ccccc1-n1nc2cc(C(N)=O)cnc2c1NC(=O)c1cc(-c2ncccn2)c(C(F)(F)F)cc1F` [Compound 91, 3-({[2-fluoro-5-pyrimidin-2-yl-4-(trifluoromethyl)phenyl]carbonyl}amino)-2-(2-methylphenyl)-2H-pyrazolo[4,3-b]pyridine-6-carboxamide] was tested, and the IC50 was 52 nM.

Reference: patent publication US9862707B2, “TrkA kinase inhibitors, compositions and methods thereof” (Merck Sharp & Dohme Corp., priority 2014, dated 2018)
